Literature values in patent US6299888A, “Azelastine hydrochloride-containing percutaneous preparation having good percutaneous absorbability and reduced skin irritation” (Teikoku Seiyaku Kabushiki Kaisha, priority 1997, dated 2001).
Structures can show the parent of a compound that is named as a salt.

- dissociation constant (pKa): about 9.5
SMILES: CN1CCCC(n2nc(Cc3ccc(Cl)cc3)c3ccccc3c2=O)CC1 (stereo not shown) [azelastine hydrochloride]
